Structures can show the parent of a compound that is named as a salt.

Data on 22 molecules can be found in patent publication US9695149B2, “1,2,6-substituted benzimidazoles as flap modulators” (JANSSEN PHARMACEUTICA NV, priority 2013, dated 2017).

The subject of test [1] is leukotriene pathway in human whole blood. Nature of the test: Human whole blood assay (LTB4, A23187-stimulated). The class given is cell-based. To be noted: human whole blood diluted 1:1 in RPMI, calcium ionophore A23187 7 μg/mL, 30 min. On the procedure:
(§1) The ability of the compounds of the present invention to treat a FLAP-mediated disease and/or disorder, or associated symptoms or complications thereof, was determined using the following procedures. Binding assay data represent the average value obtained from two different assay plates, with samples run in duplicate on each plate. Human whole blood assay data represent a single replicate on an assay plate using whole blood from at least one healthy donor.
An in vitro cellular assay was performed using human whole blood collected in heparin-containing tubes, which was used to test the ability of compounds to modulate the leukotriene pathway in human whole blood. The blood was diluted 1:1 in RPMI medium, pre-incubated for 15 min at 37° Celsius with test compounds at various concentrations, and then stimulated with calcium ionophore, A23187 (7 μg/mL), for 30 min at 37° Celsius. The samples were then centrifuged and plasma was removed. The plasma was diluted in assay buffer and LTB4 levels were measured using a commercial kit (Enzo Life Sciences). The concentration of each compound that was required for half-maximal inhibition (modulation) of […] (IC50) was calculated by a 4-parameter equation using the program GraphPad Prism (GraphPad software). For analysis, data are imported into 3DX and aggregated as the average of duplicates of the calculated ratios in order to calculate Ki and IC50 values. Numbers in parentheses are the number of runs for the assay.

The target of a further test is human FLAP (Homo sapiens (Human), UniProt P20292). Kind of test: FLAP binding assay (HTRF format). The settings on record: human FLAP-containing Sf-9 membranes, wild type; average of runs. How it is done: as §1
Sequence of human FLAP (P20292 whole entry): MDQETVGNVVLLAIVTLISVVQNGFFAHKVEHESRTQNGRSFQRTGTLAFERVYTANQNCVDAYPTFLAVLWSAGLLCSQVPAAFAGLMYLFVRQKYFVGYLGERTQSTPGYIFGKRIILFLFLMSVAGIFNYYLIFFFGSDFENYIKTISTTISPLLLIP
The assay below is used to test the modulatory activity of compounds against FLAP. Human and mouse FLAP-encoding DNA was amplified by polymerase chain reaction and cloned into pFastBac1 (Invitrogen) with a NH2-terminal 6-His tag for expression in Spodoptera frugiperda (Sf-9) cells. FLAP-containing membranes were prepared as was a FITC-labeled FLAP modulator (3-(3-(tert-butylthio)-1-(4-chlorobenzyl)-5-(quinolin-2-ylmethoxy)-1H-indol-2-yl)-2,2-dimethylpropanoic acid). The FLAP binding assay is performed in HTRF format (homogeneous time resolved fluorescence). […] The reaction is allowed to proceed for two hours after which the plate is read on an Envision plate reader in HTRF mode. Data are expressed as a HTRF ratio.
For human FLAP binding assays, data are analyzed with 3DX Explorer software. […] For analysis, data from multiple runs are averaged and each compound may be tested in 2 to 20 runs. Each run comprises two plates and each plate includes duplicates. Data from each plate is averaged and data are imported into 3DX. The data from multiple runs are aggregated as the average of duplicates of the calculated ratios in order to calculate Ki and IC50 values. Numbers in parentheses are the number of runs for the assay.
For orientation: In TR-FRET formats the signal depends on donor and acceptor labels being close together.

As usually defined, the IC50 is the midpoint of a concentration-inhibition curve. As for `Cc1ccc(COc2ccc3nc(C4CCCC[C@H]4C(=O)O)n(Cc4cccc(N5CCCCC5)c4)c3c2)nc1` (mixture of isomers) [Example 223, racemic cis-2-{6-[(5-Methylpyridin-2-yl)methoxy]-1-(3-piperidin-1-ylbenzyl)-1H-benzimidazol-2-yl}cyclohexanecarboxylic acid], the IC50 in test [1] is 320 nM. `Cc1ccc(COc2ccc3nc(C4CCCC[C@H]4C(=O)O)n(Cc4cccc(N5CCC(F)(F)C5)c4)c3c2)nc1` (mixture of isomers) [Example 220, racemic cis-2-{1-[3-(3,3-Difluoropyrrolidin-1-yl)benzyl]-6-[(5-methylpyridin-2-yl)methoxy]-1H-benzimidazol-2-yl}cyclohexanecarboxylic acid]: in test [1] (Homo sapiens, 0.5 h), the IC50 came to 650 nM.

Consider `Cc1ccc(COc2ccc3nc([C@H]4CCCC[C@H]4C(=O)O)n(Cc4cc(Br)ccc4F)c3c2)nc1` (racemic) [Example 229, racemic-cis-2-{1-(5-Bromo-2-fluorobenzyl)-6-[(5-methylpyridin-2-yl)methoxy]-1H-benzimidazol-2-yl}cyclohexanecarboxylic acid], for which the IC50 in test [1] was 6640 nM. A word on the Ki: it is a measure of affinity in units of concentration, obtained from inhibition or displacement. On human FLAP, `Cn1ccc(COc2ccc3nc(C4CCCC[C@H]4C(=O)O)n(Cc4cccc(Br)c4)c3c2)n1` (single isomer, unassigned) [Example 198, (1R*,2S*)-2-{1-(3-Bromobenzyl)-6-[(1-methyl-1H-pyrazol-3-yl)methoxy]-1H-benzimidazol-2-yl}cyclohexanecarboxylic acid] showed a Ki of over 10000 nM. For `CCC(CC)(Cc1nc2ccc(OCc3ccn(C)n3)cc2n1Cc1ccc(-c2cnc(OC)nc2)cc1F)C(=O)O` [Example 214, 2-Ethyl-2-({1-[2-fluoro-4-(2-methoxypyrimidin-5-yl)benzyl]-6-[(1-methyl-1H-pyrazol-3-yl)methoxy]-1H-benzimidazol-2-yl}methyl)butanoic acid], the Ki on human FLAP was about 2500 nM.

`Cn1ccc(COc2cc(F)c3nc(C4CCCC[C@H]4C(=O)O)n(Cc4ccc(N5CCC(F)(F)C5)cc4)c3c2)n1` (mixture of isomers) [Example 236, racemic cis-2-{1-[4-(3,3-Difluoropyrrolidin-1-yl)benzyl]-4-fluoro-6-[(1-methyl-1H-pyrazol-3-yl)methoxy]-1H-benzimidazol-2-yl}cyclohexanecarboxylic acid] had a Ki on human FLAP of 2.4 nM. Also, the concentration for half-maximal inhibition (IC50) in test [1] (Homo sapiens, 0.5 h) was determined as 1650 nM. Molecule `CCC(CC)(Cc1nc2ccc(OCc3ccc(C)cn3)cc2n1Cc1cccc(-c2cnc(OC)nc2)c1)C(=O)O` [Example 196, 2-Ethyl-2-({1-[3-(2-methoxypyrimidin-5-yl)benzyl]-6-[(5-methylpyridin-2-yl)methoxy]-1H-benzimidazol-2-yl}methyl)butanoic acid] came in with a Ki at human FLAP of about 500 nM. On the same count and under the same terms, under `Cc1ccc(COc2ccc3nc(CC(C)(C)C(=O)O)n(Cc4cc(Br)ccc4F)c3c2)nc1` [Example 225, 3-{1-(5-Bromo-2-fluorobenzyl)-6-[(5-methylpyridin-2-yl)methoxy]-1H-benzimidazol-2-yl}-2,2-dimethylpropanoic acid] stands about 870 nM. Still for that read-out and setting: the same measure for `Cc1ccc(COc2ccc3nc(C4[C@H](C(=O)O)C4(C)C)n(Cc4cccc(C)c4)c3c2)nc1` (mixture of isomers) [Example 202, racemic cis-2,2-Dimethyl-3-{1-(3-methylbenzyl)-6-[(5-methylpyridin-2-yl)methoxy]-1H-benzimidazol-2-yl}cyclopropanecarboxylic acid]: about 750 nM. At human FLAP, `CCC(CC)(Cc1nc2ccc(OCc3ccn(C)n3)cc2n1Cc1cccc(N2CCC(F)(F)C2)c1)C(=O)O` [Example 211, 2-({1-[3-(3,3-Difluoropyrrolidin-1-yl)benzyl]-6-[(1-methyl-1H-pyrazol-3-yl)methoxy]-1H-benzimidazol-2-yl}methyl)-2-ethylbutanoic acid] yielded a Ki of 35 nM. In test [1] (Homo sapiens, 0.5 h), the IC50 turned out to be 840 nM. In the same order, the values of `Cn1ccc(COc2ccc3nc(C4CCCC[C@H]4C(=O)O)n(Cc4cccc(N5CC(F)(F)C5)c4)c3c2)n1` (mixture of isomers) [Example 205, racemic cis-2-{1-[3-(3,3-Difluoroazetidin-1-yl)benzyl]-6-[(1-methyl-1H-pyrazol-3-yl)methoxy]-1H-benzimidazol-2-yl}cyclohexanecarboxylic acid as the trifluoroacetic acid salt] are 21 nM and 1670 nM. `Cc1ccc(COc2ccc3nc(C4CCCC[C@H]4C(=O)O)n(Cc4cc(N5CCCCC5)ccc4F)c3c2)nc1` (mixture of isomers) [Example 209, racemic cis-2-{1-(2-Fluoro-5-piperidin-1-ylbenzyl)-6-[(5-methylpyridin-2-yl)methoxy]-1H-benzimidazol-2-yl}cyclohexanecarboxylic acid]: the affinity at human FLAP, expressed as Ki, was 3.8 nM. Also, in test [1] (Homo sapiens, 0.5 h), the IC50 turned out to be 150 nM. As for `Cc1ccc(COc2ccc3nc(C4CCCC[C@H]4C(=O)O)n(Cc4cccc(N5CCCCC5)c4)c3c2)nc1` (mixture of isomers) [Example 224, racemic trans-2-{6-[(5-Methylpyridin-2-yl)methoxy]-1-(3-piperidin-1-ylbenzyl)-1H-benzimidazol-2-yl}cyclohexanecarboxylic acid], in test [1], the IC50 was 2170 nM. Take `CCC(CC)(Cc1nc2ccc(OCc3ccn(C)n3)cc2n1Cc1cc(Br)ccc1F)C(=O)O` [Example 234, 2-({1-(5-Bromo-2-fluorobenzyl)-6-[(1-methyl-1H-pyrazol-3-yl)methoxy]-1H-benzimidazol-2-yl}methyl)-2-ethylbutanoic acid]: the Ki on human FLAP was over 10000 nM. Still for that read-out and setting: the same measure for `Cc1ccc(COc2ccc3nc(C4CCCC[C@H]4C(=O)O)n(Cc4cccc(Br)c4)c3c2)nc1` (mixture of isomers) [Example 217, racemic trans-2-{1-(3-Bromobenzyl)-6-[(5-methylpyridin-2-yl)methoxy]-1H-benzimidazol-2-yl}cyclohexanecarboxylic acid]: 60 nM; for `CCC(CC)(Cc1nc2ccc(OCc3ccn(C)n3)cc2n1Cc1ccc(N2CCC(F)(F)C2)cc1)C(=O)O` [Example 216, 2-({1-[4-(3,3-Difluoropyrrolidin-1-yl)benzyl]-6-[(1-methyl-1H-pyrazol-3-yl)methoxy]-1H-benzimidazol-2-yl}methyl)-2-ethylbutanoic acid]: about 180 nM.

Molecule `Cc1ccc(COc2ccc3nc(C4[C@H](C(=O)O)C4(C)C)n(Cc4ccccc4C)c3c2)nc1` (mixture of isomers) [Example 210, racemic cis-2,2-Dimethyl-3-{1-(2-methylbenzyl)-6-[(5-methylpyridin-2-yl)methoxy]-1H-benzimidazol-2-yl}cyclopropanecarboxylic acid] returned a Ki at human FLAP of about 1750 nM. Still for that read-out and setting: the same measure for `CCC(CC)(Cc1nc2ccc(OCc3ccn(C)n3)cc2n1Cc1cccc(-c2cnc(OC)nc2)c1)C(=O)O` [Example 213, 2-Ethyl-2-({1-[3-(2-methoxypyrimidin-5-yl)benzyl]-6-[(1-methyl-1H-pyrazol-3-yl)methoxy]-1H-benzimidazol-2-yl}methyl)butanoic acid]: about 940 nM. For `Cc1ccc(COc2ccc3nc(C4CCCC[C@H]4C(=O)O)n(Cc4cc(Br)ccc4F)c3c2)nc1` (mixture of isomers) [Example 218, racemic trans-2-{1-(5-Bromo-2-fluorobenzyl)-6-[(5-methylpyridin-2-yl)methoxy]-1H-benzimidazol-2-yl}cyclohexanecarboxylic acid], the half-maximal inhibitory concentration (IC50) in test [1] (Homo sapiens, 0.5 h) amounted to 4170 nM. In the case of `Cc1ccc(COc2ccc3nc(CC(C)(C)C(=O)O)n(Cc4cccc(Br)c4)c3c2)nc1` [Example 232, 3-{1-(3-Bromobenzyl)-6-[(5-methylpyridin-2-yl)methoxy]-1H-benzimidazol-2-yl}-2,2-dimethylpropanoic acid as the trifluoroacetic acid salt], on human FLAP, the Ki is about 750 nM. Consider `Cc1ccc(COc2ccc3nc(C4[C@H](C(=O)O)C4(C)C)n(Cc4cc(Br)ccc4F)c3c2)nc1` (mixture of isomers) [Example 227, racemic cis-3-{1-(5-Bromo-2-fluorobenzyl)-6-[(5-methylpyridin-2-yl)methoxy]-1H-benzimidazol-2-yl}-2,2-dimethylcyclopropanecarboxylic acid], for which the IC50 in test [1] (Homo sapiens, 0.5 h) is 4520 nM.

`Cn1ccc(COc2ccc3nc(C4CCCC[C@H]4C(=O)O)n(Cc4cccc(C#N)c4)c3c2)n1` (mixture of isomers) [Example 199, racemic cis-2-{1-(3-Cyanobenzyl)-6-[(1-methyl-1H-pyrazol-3-yl)methoxy]-1H-benzimidazol-2-yl}cyclohexanecarboxylic acid] registered a Ki at human FLAP of about 2500 nM.
